Paper PMC8022858, “Discovery of bone morphogenetic protein 7-derived peptide sequences that attenuate the human osteoarthritic chondrocyte phenotype” (Molecular Therapy. Methods & Clinical Development, 2021)

How the values were obtained:
[1] = tested on: primary human OA articular chondrocytes (OA-HACs); assay: BMP7 peptide library screening, quantitative real-time PCR of OA chondrocyte phenotype genes; assay type: cell-based; conditions: pool of 18 OA-HAC donors, scrambled peptides 100 nM, 24 h (Figure 2G)
Text: To investigate whether BMP7 harbors potential peptide sequences that improve the OA chondrocyte phenotype, a peptide library was designed from the mature 139 amino acid-long human BMP7 sequence (Table S2). The peptide library was designed as 20-mer peptides with 2 amino acid intervals (18 amino acid overlap) between individual peptides and with all cysteine residues substituted by serine residues to avoid uncontrolled oxidation of cysteine groups. This yielded 61 individual peptides covering the complete mature human BMP7 sequence (Figure 1A). The peptide library was screened using a pool of primary human OA articular chondrocytes (OA-HACs) from 18 individual donors. Prior to pooling, individual OA-HAC isolates were tested for their responsiveness to BMP7 (Figure S1). The screening was conducted by exposing the OA-HAC pool for 24 h to a concentration series (1, 10, 100, or 1,000 nM) of each peptide from the library. […] This is defined as reduced expression of collagen type X alpha 1 chain (COL10A1), alkaline phosphatase (ALPL), Runt-related transcription factor 2 (RUNX2), ADAMTS5, MMP13, prostaglandin-endoperoxide synthase 2 or cyclooxygenase-2 (COX-2), and interleukin 6 (IL6) and increased expression of SRY-box transcription factor 9 (SOX9), COL2A1, and NKX3-2. […] Representative peptides inducing the above gene expression characteristics in OA-HACs were selected from both regions for further investigation. These were peptide p[63−82] and p[113−132] from the library, covering amino acids 63−82 and 113−132 of the mature BMP7 amino acid sequence. The complete quantitative real-time PCR data for peptides p[63−82] and p[113−132] […] For the two candidate peptides, we validated data using an independent cohort of three OA-HACs exposed to 100 nM of p[63−82] or p[113−132] or a combination of both peptides. […] Taken together, two regions in BMP7 were identified delivering peptide sequences that are able to improve the OA chondrocyte phenotype.
Figure 1 BMP7 peptide library screening on primary human OA articular chondrocytes (OA-HACs) (A) Schematic representation of the design of the human BMP7 peptide library. (B) COL10A1 mRNA expression in samples from the library screening on a pool of 18 OA-HACs individually exposed for 24 h to the peptides (100 nM) in the library. Data are shown as compared to the control condition (white bar) and full-length BMP7 (1 nM; gray bar). The two blue bars represent candidate peptides p[63−82] and p[113−132]. […] Error bars represent mean ± SEM, and statistical significance for peptide condition or BMP7 versus control condition as determined by unpaired two-tailed Student’s t test is represented as ∗p < 0.05, ∗∗p < 0.01, and ∗∗∗p < 0.001; NS, not significant.
Figure 2 Bioactivity of BMP7-derived peptides p[63−82] and p[113−132] on OA-HACs Complete peptide library screening quantitative real-time PCR dataset for peptides p[63−82] and p[113−132] is presented. (A) SOX9, COL2A1, and NKX3-2 mRNA expression in the 18 OA-HAC pool exposed to 1,000, 100, 10, or 1 nM of peptide p[63−82] and p[113−132] is shown and presented relative to control (black bars) and alongside full-length BMP7 (white bars). (B) Similar to (A) but for chondrocyte hypertrophy-associated genes RUNX2, COL10A1, and ALPL. (C) Similar to (A) but for cartilage extracellular matrix remodeling-associated genes MMP13 and ADAMTS5 and inflammation-related genes COX-2 and IL-6. (D) Glycosaminoglycan (GAG) content (normalized to total protein content) on an independent cohort of three individual OA-HAC donors treated with 100 nM peptides p[63−82] and p[113−132] for 24 h. (E) Alkaline phosphatase (ALP) activity (normalized to total protein content) in similar samples from (D). (F) Prostaglandin E2 (PGE2) levels in culture supernatant in similar samples from (D). […]

[2] = tested on: OA-HAC pool; assay: Alanine scanning of peptide p[63-82], gene expression and bioactivity score; assay type: cell-based, human; conditions: pool of 18 OA-HACs, 100 nM; for impact of alanine substitution on peptide p[63-82] bioactivity (bioactivity score): 24 h, score = sum of fold change of COL10A1, ALPL, MMP13, COL2A1, NKX3-2 versus wild-type (Figure 5C)
Description: Figure 5 Molecular characterization of peptides p[63−82] and p[113−132] (A) A pool of OA-HACs (n = 4 donors) was transfected with a scrambled siRNA or with an NKX3-2 siRNA (100 nM siRNA) and cultured for 24 h. Cultures were then exposed to peptide p[63−82] or p[113−132] (100 nM peptide). Samples were harvested 24 h later and analyzed for the expression of the indicated mRNAs (normalized to 28S rRNA). (B) SW1353 chondrocytic cells were transfected with BRE (SMAD1/5/8 reporter) or CAGA12 (SMAD2/3 reporter) firefly luciferase-reporter plasmids. A CMV-Gaussia plasmid was cotransfected as a transfection control. Cells were then cultured for 24 h and subsequently exposed to control, p[63−82], or p[113−132] for 8 h. Firefly and Gaussia bioluminescence were measured in cells and medium (respectively), and relative light units (RLUs) of firefly luciferase were normalized for the Gaussia luciferase signal. The normalized firefly luciferase signal of the control condition was set at 1, and peptide conditions were calculated relative to the control condition (FL/GL). Error bars represent mean ± SEM; statistical significance for peptide conditions versus siScrambled or siNKX3-2 (A) or control condition (B) as determined by unpaired two-tailed Student’s t test is represented as ∗p < 0.05, ∗∗p < 0.01, and ∗∗∗p < 0.001. (C) An alanine scanning library of peptide p[63−82] was synthesized, and the pool of 18 OA-HACs originally used for the full library scanning (Figure 1) was exposed to individual peptides from the alanine scanning library (100 nM peptide) for 24 h. An alanine-scanning bioactivity score (sum of the fold change gene expression of COL10A1, ALPL, MMP13, and COL2A1 plus NKX3-2 of the alanine-substituted peptides versus the wild-type p[63−82] peptide) was calculated for each alanine substitution in the amino acid sequence of peptide p[63−82] and is represented by the height of each letter on the y axis (data in Figure S4). (D) Multiple sequence alignment of the human BMP7 p[63−82] peptide with the homologous region in BMP7 of other species.
We aimed to further understand the sequence dependency of the peptide bioactivity. Peptide p[63−82] was derived from the central region within BMP7, and since this yielded a limited series of bioactive peptides (Figures 1B and S2), we further focused our analyses on peptide p[63−82]. To determine which amino acids are important for the bioactivity of peptide p[63−82], an alanine-scanning peptide library was synthesized, based on systematic alanine substitution of consecutive amino acids in the peptide p[63−82] sequence (Table S1). This alanine-scanning library was then screened by exposing an OA-HAC pool (the same pool that was used for the full library scanning in Figure 1) for 24 h to 100 nM of each peptide in the alanine-scanning library. The bioactivity of each peptide was determined by measuring gene expression of COL10A1, ALPL, MMP13, COL2A1, and NKX3-2 (Figure S4). Changes in the bioactivity of the alanine-scanning library peptides were combined into a “bioactivity score” of each individual substituted amino acid in the parental p[63−82] peptide (Figure 5C). […] The region in BMP7 from which peptide p[63−82] was derived and the G7 position in it are evolutionary highly conserved, as determined by sequence alignment of BMP7 sequences from various animal species (Figure 5D).
For the peptide-screening and alanine-scanning experiments, cDNA was prepared using the Cells-to-Ct kit (Invitrogen) according to the manufacturer’s protocol. For the other experiments, cells or homogenized tissues (Mikro-Dismembrator; Braun Biotech International) were lysed in TRIzol (Life Technologies) and RNA isolation and cDNA synthesis were performed as described earlier.[27]^,[57] Quantitative real-time PCR was performed using Takyon qPCR Master Mix plus blue for SYBR Green (Eurogentec). […]

Substance	impact of alanine substitution on peptide p[63-82] bioactivity (bioactivity score) [2]	also measured
H-VYISNVDDYSNKFLLKVRSM-OH [scrambled p[113−132], scrambled version of peptide p[113−132], reference compound]		sequence specificity: expression of COL2A1, RUNX2, COL10A1, and COX-2 [1]: neither one of them was able to recapitulate the bioactivity
H-AAYYSEGESAFPLNSAMNAT-OH [Y16A, alanine-scanning peptide of p[63−82], substitution position 16]	important impact	
H-AAYYSEGASAFPLNSYMNAT-OH [E8A, alanine-scanning peptide of p[63−82], substitution position 08]	important impact	
H-AAAYSEGESAFPLNSYMNAT-OH [Y3A, alanine-scanning peptide of p[63−82], substitution position 03]	important impact	
H-AAYYSEGESAFPLNSYANAT-OH [M17A, alanine-scanning peptide of p[63−82], substitution position 17]	important impact	
H-AAYYSEGESAAPLNSYMNAT-OH [F11A, alanine-scanning peptide of p[63−82], substitution position 11]	important impact	
H-AAYYSEAESAFPLNSYMNAT-OH [G7A, alanine-scanning peptide of p[63−82], substitution position 07]	important impact	response on chondrocyte hypertrophy ([2]; 24 h (Figure S4)): reciprocal response; impact on the chondrocyte phenotype-modulating action of the peptide ([2]; 24 h (Figures 5C, S4)): largest impact
